Test results taken from the supplement of paper PMC11061612.

Key:
[1] = system: WSU-NHL (B-Cell Non-Hodgkin's Lymphoma); assay: combination Emax (second highest fraction inhibited in the dose matrix, 72 h); higher = more inhibition; extreme values may be limits of the assay
Procedure, shortened: (§1)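 After 24 hours at 37°C and 5% CO2 in 1536-well plates, cells in DMEM/F12 or RPMI plus 10% FBS received two-drug dose matrices for 72 hours. Viability came from CellTiter-Glo 2.0 luminescence and was scaled as inhibition, anchored at 0 by vehicle wells and at 1 by blank wells. Combination Emax is taken as the second-highest inhibition in the matrix, and Bliss excess as the observed combination effect less EA + EB − EA·EB, with EA and EB the single-agent effects.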

[2] = system: SW1710 (Bladder Carcinoma); assay: as above
Procedure, shortened: as §1

[3] = system: KYAE-1 (Esophageal Adenocarcinoma); assay: as above
Procedure, shortened: as §1

[4] = system: CAL-72 (Osteosarcoma); assay: as above
Procedure, shortened: as §1

[5] = system: BE-13 (T-Lymphoblastic Leukemia); assay: as above
Procedure, shortened: as §1

[6] = system: NCI-H720 (Other Solid Carcinomas); assay: Bliss excess, mean over the matrix (fraction); higher = more synergy
Procedure, shortened: as §1

[7] = system: BE2-M17 (Neuroblastoma); assay: combination Emax (second highest fraction inhibited in the dose matrix, 72 h); higher = more inhibition; extreme values may be limits of the assay
Procedure, shortened: as §1

[8] = system: NCI-H720 (Other Solid Carcinomas); assay: as above
Procedure, shortened: as §1

[9] = system: ALL-PO (B-Lymphoblastic Leukemia); assay: as above
Procedure, shortened: as §1

[10] = system: KMRC-20 (Kidney Carcinoma); assay: as above
Procedure, shortened: as §1

[11] = system: MHH-CALL-2 (B-Lymphoblastic Leukemia); assay: Bliss excess, mean over the matrix (fraction); higher = more synergy
Procedure, shortened: as §1

[12] = system: MHH-CALL-2 (B-Lymphoblastic Leukemia); assay: combination Emax (second highest fraction inhibited in the dose matrix, 72 h); higher = more inhibition; extreme values may be limits of the assay
Procedure, shortened: as §1
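Throughout, for Bliss excess, mean over the matrix: after 72 h of two-drug dosing.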

SMILES | combination Emax [1] | combination Emax [2] | combination Emax [3] | combination Emax [4] | combination Emax [5] | Bliss excess [6] | combination Emax [7] | combination Emax [8] | combination Emax [9] | combination Emax [10] | Bliss excess [11] | combination Emax [12]
N#Cc1cnc(Nc2cc(NC[C@H]3CNCCO3)c(C(F)(F)F)cn2)cn1 [SRA737] + C=CCn1c(=O)c2cnc(Nc3ccc(N4CCN(C)CC4)cc3)nc2n1-c1cccc(C(C)(C)O)n1 [AZD1775] (first compound max 10 µM, partner max 1 µM) | 0.989 | 0.644 | 0.114 | 0.88 | 0.993 | – | – | – | – | – | – | –
Cc1cc2ncnn2cc1Nc1ncc2c(n1)n(C1CCOCC1)c(=O)n2C [AZD7648] + CN(C)CCCOc1ccc(-c2ccc3ncc4c(c3c2)n(C2CCOCC2)c(=O)n4C)cn1 [AZD0156] (first compound max 10 µM, 7x7, partner max 1 µM) | 0.498 | 0.217 | 0.121 | 0.399 | 0.323 | -0.0328 | 0.283 | 0.296 | 0.265 | 0.201 | – | –
N#Cc1cnc(Nc2cc(NC[C@H]3CNCCO3)c(C(F)(F)F)cn2)cn1 [SRA737] + CCc1c2c(nc3ccc(O)cc13)-c1cc3c(c(=O)n1C2)COC(=O)[C@]3(O)CC [SN-38] (first compound max 10 µM, 7x7, partner max 0.3 µM) | 0.994 | 0.676 | 0.313 | 0.91 | 0.99 | – | – | – | – | – | – | –
C[C@@H](c1ccc2nccn2c1)n1nnc2ncc(-c3cnn(C)c3)nc21 [Savolitinib] + CC1(C)CCC(CN2CCN(c3ccc(C(=O)NS(=O)(=O)c4ccc(NCC5CCOCC5)c([N+](=O)[O-])c4)c(Oc4cnc5[nH]ccc5c4)c3)CC2)=C(c2ccc(Cl)cc2)C1 [Venetoclax] (first compound max 1 µM, 7x7, partner max 1 µM) | 0.315 | 0.0997 | 0.0925 | 0.181 | 0.196 | – | 0.0964 | – | 0.337 | 0.148 | -0.0471 | 0.0992
Cc1cc2ncnn2cc1Nc1ncc2c(n1)n(C1CCOCC1)c(=O)n2C [AZD7648] + O=C(c1cc(Cc2n[nH]c(=O)c3ccccc23)ccc1F)N1CCN(C(=O)C2CC2)CC1 [Olaparib] (first compound max 10 µM, 7x7, partner max 10 µM) | 0.71 | 0.0781 | 0.0816 | 0.322 | 0.255 | -0.0244 | 0.414 | 0.316 | 0.608 | 0.282 | – | –
CN(CCO)CC[C@H](CSc1ccccc1)Nc1ccc(S(=O)(=O)NC(=O)c2ccc(N3CCC([C@@H](O)c4ccccc4-c4ccc(Cl)cc4)CC3)cc2)cc1S(=O)(=O)C(F)(F)F [AZD4320] + CCN(CCO)CCCOc1ccc2c(Nc3cc(CC(=O)Nc4cccc(F)c4)[nH]n3)ncnc2c1 [AZD2811] (first compound max 1 µM, 7x7, partner max 1 µM) | 0.785 | 0.154 | 0.496 | 0.373 | 1 | – | 0.64 | – | 1 | 0.256 | 0.138 | 0.538
Cc1cc2ncnn2cc1Nc1ncc2c(n1)n(C1CCOCC1)c(=O)n2C [AZD7648] + COc1cc([C@@H]2c3cc4c(cc3[C@@H](O[C@@H]3O[C@@H]5CO[C@@H](C)O[C@H]5[C@H](O)[C@H]3O)[C@H]3COC(=O)[C@H]23)OCO4)cc(OC)c1O [Etoposide] (first compound max 10 µM, 7x7, partner max 10 µM) | 1 | 0.301 | 0.547 | 0.822 | 0.976 | – | – | – | – | – | – | –
Cc1cc2ncnn2cc1Nc1ncc2c(n1)n(C1CCOCC1)c(=O)n2C [AZD7648] + CCN(CCO)CCCOc1ccc2c(Nc3cc(CC(=O)Nc4cccc(F)c4)[nH]n3)ncnc2c1 [AZD2811] (first compound max 10 µM, 7x7, partner max 1 µM) | 0.976 | 0.202 | 0.207 | 0.436 | 0.764 | 0.0621 | 0.379 | 0.756 | 0.979 | 0.275 | – | –
N#Cc1cnc(Nc2cc(NC[C@H]3CNCCO3)c(C(F)(F)F)cn2)cn1 [SRA737] + Nc1ccn([C@@H]2O[C@H](CO)[C@@H](O)C2(F)F)c(=O)n1 [Gemcitabine] (first compound max 10 µM, 7x7, partner max 0.3 µM) | 0.993 | 0.676 | 0.19 | 0.72 | 1 | – | – | – | – | – | – | –
COc1cc2ncnc(Nc3ccc(F)c(Cl)c3)c2cc1OCCCN1CCOCC1 [Gefitinib] + CC(C)n1c(=O)n(C)c2cnc3cc(F)c(-c4ccc(OCCCN5CCCCC5)nc4)cc3c21 [AZD1390] (first compound max 10 µM, 7x7, partner max 0.3 µM) | 0.337 | 0.228 | 0.646 | 0.109 | 0.266 | – | 0.147 | – | 0.59 | 0.173 | -0.0419 | 0.0382
COc1nnc2ccc(N3CCC(c4ccc(OCCN5CCN(C)C(=O)[C@H]5C)cc4)CC3)nn12 [AZD5153] + CN(CC[C@H](CSC1=CC=CC=C1)NC2=C(C=C(C=C2)S(=O)(=O)NC(=O)C3=CC=C(C=C3)N4CCC(CC4)[C@H](C5=CC=CC=C5C6=CC=C(C=C6)Cl)O)S(=O)(=O)C(F)(F)F)CCO [AZD4320] (first compound max 1 µM, 7x7, partner max 1 µM) | – | – | – | – | – | – | 0.915 | – | 1 | 0.545 | 0.0512 | 0.688
Cc1nc(Nc2ncc(C(=O)Nc3c(C)cccc3Cl)s2)cc(N2CCN(CCO)CC2)n1 [Dasatinib] + CC(=O)Nc1cccc(-n2c(=O)n(C3CC3)c(=O)c3c(Nc4ccc(I)cc4F)n(C)c(=O)c(C)c32)c1 [Trametinib] (first compound max 2 µM, 7x7, partner max 1 µM) | 0.962 | 0.77 | 0.0573 | 0.545 | 0.607 | – | 0.868 | – | 0.451 | 0.57 | -0.0223 | 0.128
COc1cc2c(cc1OCCCCCOc1cc3c(cc1OC)C(=O)N1C=C(C)C[C@H]1C=N3)N=C[C@@H]1CC(C)=CN1C2=O [SG3199] + O=C(c1cc(Cc2n[nH]c(=O)c3ccccc23)ccc1F)N1CCN(C(=O)C2CC2)CC1 [Olaparib] (first compound max 0.001 µM, 7x7, partner max 10 µM) | 0.763 | 0.112 | 0.128 | 0.23 | 0.283 | 0.0077 | 0.299 | 0.144 | 0.646 | 0.128 | – | –
Cc1cc2ncnn2cc1Nc1ncc2c(n1)n(C1CCOCC1)c(=O)n2C [AZD7648] + C[C@@H]1COCCN1C2=NC(=NC(=C2)C3(CC3)[S@](=N)(=O)C)C4=C5C=CNC5=NC=C4 [AZD6738] (first compound max 10 µM, 7x7, partner max 10 µM) | 1 | 0.503 | 0.204 | 0.788 | 0.757 | -0.0692 | 0.844 | 0.722 | 0.925 | 0.425 | – | –
CN(CCO)CC[C@H](CSc1ccccc1)Nc1ccc(S(=O)(=O)NC(=O)c2ccc(N3CCC([C@@H](O)c4ccccc4-c4ccc(Cl)cc4)CC3)cc2)cc1S(=O)(=O)C(F)(F)F [AZD4320] + Cc1cc2ncnn2cc1Nc1ncc2c(n1)n(C1CCOCC1)c(=O)n2C [AZD7648] (first compound max 1 µM, 7x7, partner max 10 µM) | 0.86 | 0.131 | 0.279 | 0.382 | 0.981 | – | 0.369 | – | 0.992 | 0.157 | 0.0839 | 0.516
C[C@@H](c1ccc2nccn2c1)n1nnc2ncc(-c3cnn(C)c3)nc21 [Savolitinib] + Cc1c2c(nn1C)CSCc1cc(n(C)n1)CSc1cc(c3ccccc3c1)OCCCc1c(C(=O)O)n(C)c3c-2c(Cl)ccc13 [AZD5991] (first compound max 1 µM, 7x7, partner max 1 µM) | 0.743 | 0.105 | 0.137 | 0.189 | 0.383 | – | 0.129 | – | 1 | 0.195 | -0.0343 | 0.976
Cc1cc2ncnn2cc1Nc1ncc2c(n1)n(C1CCOCC1)c(=O)n2C [AZD7648] + C=CCn1c(=O)c2cnc(Nc3ccc(N4CCN(C)CC4)cc3)nc2n1-c1cccc(C(C)(C)O)n1 [AZD1775] (first compound max 10 µM, partner max 1 µM) | 1 | 0.408 | 0.574 | 0.649 | 1 | -0.0899 | 0.704 | 0.601 | 0.966 | 0.53 | – | –
